In test [1] the target is T1, HiBit-KRAS^G12C (Homo sapiens, UniProt P01116, G12C). As to the kind of experiment: HiBit degradation assay in MiaPaCa-2 HiBit-KRas^G12C cells. It counts as cell-based. The note with it: 0.5% DMSO, 24 hours; for Dmax: MIA PaCa-2, MiaPaCa-2 HiBit-KRas^G12C cells, maximum degradation, read-out: KRas^G12C-HiBiT (MiaPaCa; 0.5% DMSO) DMax; for DC50: read-out: KRas^G12C-HiBiT (MiaPaCa; 0.5% DMSO) IC50, MiaPaCa-2 HiBit-KRas^G12C cells. The gist of the method:
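DC50 and Dmax come from 4-parameter fits of DMSO-normalized HiBit luminescence after 24 hours' exposure at 37° C to 10 μM–20 nM compound in 0.1% or 0.5% DMSO. Cells: MiaPaCa-2 carrying one endogenously HiBit-tagged KRAS^G12C allele; concentrations causing ≥50% […] viability loss (alamar blue) excluded.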

Test [2] addresses T1, HiBit-KRAS^G12C. As to the kind of experiment: HiBit degradation assay in SW1573 HiBit-KRas^G12C cells. It counts as cell-based. Also on record: expressed in transfected cells; host or cells: SW1573 (clone E6), modified pcDNA3.1 vector, TK promoter. Conditions: 0.5% DMSO, 24 hours; for Dmax: SW1573, SW1573 HiBit-KRas^G12C, read-out: KRas^G12C-HiBiT (SW1573; 0.5% DMSO) Dmax**; for DC50: read-out: KRas^G12C-HiBiT (SW1573; 0.5% DMSO) IC50***, SW1573 HiBit-KRas^G12C. The gist of the method:
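HiBit-KRAS G12C degradation was measured after a 24 h compound exposure (titrated 10 μM–20 nM) in engineered SW1573 cells. Lytic HiBit luminescence, expressed relative to DMSO controls, yielded DC50 and Dmax from 4-parameter fits. Concentrations causing ≥50% loss in alamar blue viability were omitted as cytotoxic.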

Among the data in US20220370416A1, “COMPOUNDS AND METHODS FOR TARGETED DEGRADATION OF KRAS” (Arvinas Operations, Inc., priority 2020, published 2022) are Dmax and DC50 values, retold here.

T1 sequence (P01116 1-186 isoform P01116-2 G12C limits assumed): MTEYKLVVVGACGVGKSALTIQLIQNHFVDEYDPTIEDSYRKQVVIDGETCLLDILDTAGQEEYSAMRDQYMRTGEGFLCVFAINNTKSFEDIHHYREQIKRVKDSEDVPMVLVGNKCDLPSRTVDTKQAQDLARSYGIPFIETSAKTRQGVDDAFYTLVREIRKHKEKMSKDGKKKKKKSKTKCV

As for `C=CC(=O)N1CCN(c2nc(OCCN3CCC(COC4(C(=O)N[C@H](C(=O)N5C[C@H](O)C[C@H]5C(=O)N[C@@H](C)c5ccc(-c6scnc6C)cc5)C(C)(C)C)CC4)CC3)nc3c(F)c(-c4cc(O)cc5ccccc45)c(Cl)cc23)C[C@@H]1CC#N` [Compound 96, (2S,4R)-1-[(2S)-2-{[1-({1-[2-({6-chloro-4-[(3S)-3-(cyanomethyl)-4-(prop-2-enoyl)piperazin-1-yl]-8-fluoro-7-(3-hydroxynaphthalen-1-yl)quinazolin-2-yl}oxy)ethyl]piperidin-4-yl}methoxy)cyclopropyl] formamido}-3,3-dimethylbutanoyl]-4-hydroxy-N-[(1S)-1-[4-(4-methyl-1,3-thiazol-5-yl)phenyl]ethyl]pyrrolidine-2-carboxamide], in test [1], the Dmax was more than 70% and the DC50 was 100 to 1000 nM. In test [2], the Dmax was more than 70% and the DC50 is less than 100 nM.
`C=CC(=O)N1CCN(c2nc(OCCN3CCC(COCC(=O)N[C@H](C(=O)N4C[C@@H](O)C[C@H]4C(=O)N[C@@H](C)c4ccc(-c5scnc5C)cc4)C(C)(C)C)CC3)nc3c(F)c(-c4cccc5cccc(C)c45)c(Cl)cc23)C[C@@H]1CC#N` [Compound 97]: the DC50 in test [1] is more than 1000 nM. In addition, in test [2], the Dmax is more than 70% and the DC50 was more than 1000 nM.
On to `C=CC(=O)N1CCN(c2nc(OCCN3CCC(COCC(=O)N[C@H](C(=O)N4C[C@H](O)C[C@H]4C(=O)N[C@@H](C)c4ccc(-c5scnc5C)cc4)C(C)(C)C)CC3)nc3c(F)c(-c4nc(NC)cc(C)c4C(F)(F)F)c(Cl)cc23)C[C@@H]1CC#N` [Compound 98, (2S,4R)-1-[(2S)-2-[2-({1-[2-({6-chloro-4-[(3S)-3-(cyanomethyl)-4-(prop-2-enoyl)piperazin-1-yl]-8-fluoro-7-[4-methyl-6-(methylamino)-3-(trifluoromethyl)pyridin-2-yl]quinazolin-2-yl}oxy)ethyl]piperidin-4-yl}methoxy)acetamido]-3,3-dimethylbutanoyl]-4-hydroxy-N-[(1S)-1-[4-(4-methyl-1,3-thiazol-5-yl)phenyl]ethyl]pyrrolidine-2-carboxamide], for which, in test [1], the Dmax is more than 70% and the DC50 is 100 to 1000 nM. In test [2], the Dmax was more than 70% and the DC50 fell in the range of 100 to 1000 nM.
Turning to `C=CC(=O)N1CCN(c2nc(OCCN3CCC(COCC(=O)N[C@H](C(=O)N4C[C@H](O)C[C@H]4C(=O)N[C@@H](C)c4ccc(-c5scnc5C)cc4)C(C)(C)C)CC3)nc3c(F)c(-c4nc(NC)cc5ccccc45)c(Cl)cc23)C[C@@H]1CC#N` [Compound 99, (2S,4R)-1-[(2S)-2-[2-({1-[2-({6-chloro-4-[(3S)-3-(cyanomethyl)-4-(prop-2-enoyl)piperazin-1-yl]-8-fluoro-7-[3-(methylamino)isoquinolin-1-yl]quinazolin-2-yl}oxy)ethyl]piperidin-4-yl}methoxy)acetamido]-3,3-dimethylbutanoyl]-4-hydroxy-N-[(1S)-1-[4-(4-methyl-1,3-thiazol-5-yl)phenyl]ethyl]pyrrolidine-2-carboxamide], the Dmax in test [1] and in test [2] was more than 70% throughout. Besides, the DC50 in test [1] and in test [2] was more than 1000 nM in each case.
Take `C=CC(=O)N1CCN(c2nc(OC[C@@H]3CCCN3CCCCOCC(=O)N[C@H](C(=O)N3C[C@H](O)C[C@H]3C(=O)N[C@@H](C)c3ccc(-c4scnc4C)cc3)C(C)(C)C)nc3c(F)c(-c4cc(O)cc5ccccc45)c(Cl)cc23)C[C@@H]1CC#N` [Compound 100, (2S,4R)-1-[(2S)-2-(2-{4-[(2S)-2-[({6-chloro-4-[(3S)-3-(cyanomethyl)-4-(prop-2-enoyl)piperazin-1-yl]-8-fluoro-7-(3-hydroxynaphthalen-1-yl)quinazolin-2-yl}oxy)methyl]pyrrolidin-1-yl]butoxy}acetamido)-3,3-dimethylbutanoyl]-4-hydroxy-N-[(1S)-1-[4-(4-methyl-1,3-thiazol-5-yl)phenyl]ethyl]pyrrolidine-2-carboxamide]: in test [1], the Dmax is less than 35% and the DC50 was more than 1000 nM. Moreover, in test [2], the Dmax was less than 35% and the DC50 lay in the range of 100 to 1000 nM.
As for `C=CC(=O)N1CCN(c2nc(OCCN3CCC(COCC(=O)N[C@H](C(=O)N4C[C@H](O)C[C@H]4C(=O)N[C@@H](C)c4ccc(-c5scnc5C)cc4)C(C)(C)C)CC3)nc3c(F)c(-c4cc(O)cc(C)c4C)c(Cl)cc23)C[C@@H]1CC#N` [Compound 102, (2S,4R)-1-[(2S)-2-[2-({1-[2-({6-chloro-4-[(3S)-3-(cyanomethyl)-4-(prop-2-enoyl)piperazin-1-yl]-8-fluoro-7-(5-hydroxy-2,3-dimethylphenyl)quinazolin-2-yl}oxy)ethyl]piperidin-4-yl}methoxy)acetamido]-3,3-dimethylbutanoyl]-4-hydroxy-N-[(1S)-1-[4-(4-methyl-1,3-thiazol-5-yl)phenyl]ethyl]pyrrolidine-2-carboxamide], in test [1], the Dmax is more than 70% and the DC50 was in the range of 100 to 1000 nM. In test [2], the Dmax is more than 70% and the DC50 lay in the range of 100 to 1000 nM.
On to `C=CC(=O)N1CCN(c2nc(OCCN3CCC(COCC(=O)N[C@H](C(=O)N4C[C@H](O)C[C@H]4C(=O)N[C@@H](C)c4ccc(-c5scnc5C)cc4)C(C)(C)C)CC3)nc3c(F)c(-c4nc(N)cc5ccccc45)c(Cl)cc23)C[C@@H]1CC#N` [Compound 111], for which the Dmax in test [1] and in test [2] was 35 to 70% throughout. Further, the DC50 in test [1] and in test [2] was 100 to 1000 nM each time.
Regarding `C=CC(=O)N1CCN(c2nc(N3CCN(C[C@H]4C[C@H](OCC(=O)N[C@H](C(=O)N5C[C@H](O)C[C@H]5C(=O)N[C@@H](C)c5ccc(-c6scnc6C)cc5)C(C)(C)C)C4)CC3)nc3c(F)c(-c4cc(O)cc5ccccc45)c(Cl)cc23)C[C@@H]1CC#N` [Compound 114, (2S,4R)-1-[(2S)-3,3-dimethyl-2-{2-[(1r,3r)-3-[(4-{6-chloro-4-[(3S)-3-(cyanomethyl)-4-(prop-2-enoyl)piperazin-1-yl]-8-fluoro-7-(3-hydroxynaphthalen-1-yl)quinazolin-2-yl}piperazin-1-yl)methyl]cyclobutoxy]acetamido}butanoyl]-4-hydroxy-N-[(1S)-1-[4-(4-methyl-1,3-thiazol-5-yl)phenyl]ethyl]pyrrolidine-2-carboxamide], the values for the Dmax in test [1] and in test [2] were less than 35% and 35 to 70%, respectively. The DC50 in test [1] and in test [2] was 100 to 1000 nM throughout.
For the compound `C=CC(=O)N1CCN(c2nc(OCCN3CCC(COCC(=O)N[C@H](C(=O)N4C[C@H](O)C[C@H]4C(=O)N[C@@H](C)c4ccc(-c5scnc5C)cc4)C(C)(C)C)CC3)nc3c(F)c(-c4nc(N)cc(C)c4C(F)(F)F)c(Cl)cc23)C[C@@H]1CC#N` [Compound 115, (2S,4R)-1-[(2S)-2-[2-({1-[2-({7-[6-amino-4-methyl-3-(trifluoromethyl)pyridin-2-yl]-6-chloro-4-[(3S)-3-(cyanomethyl)-4-(prop-2-enoyl)piperazin-1-yl]-8-fluoroquinazolin-2-yl}oxy)ethyl]piperidin-4-yl}methoxy)acetamido]-3,3-dimethylbutanoyl]-4-hydroxy-N-[(1S)-1-[4-(4-methyl-1,3-thiazol-5-yl)phenyl]ethyl]pyrrolidine-2-carboxamide], in test [1], the Dmax was more than 70% and the DC50 lay within 100 to 1000 nM. In test [2], the Dmax was more than 70% and the DC50 fell in the range of 100 to 1000 nM.
Consider `C=CC(=O)N1CCN(c2nc(OCCN3CCC(COCC(=O)N[C@H](C(=O)N4C[C@H](O)C[C@H]4C(=O)N[C@@H](C)c4ccc(-c5scnc5C)cc4)C(C)(C)C)CC3)nc3c(F)c(-c4cc(O)cc5ccccc45)c(Cl)cc23)[C@@H](C)C1` [Compound 119, (2S,4R)-1-[(2S)-2-(2-{[1-(2-{[6-chloro-8-fluoro-7-(3-hydroxynaphthalen-1-yl)-4-[(2S)-2-methyl-4-(prop-2-enoyl)piperazin-1-yl]quinazolin-2-yl]oxy}ethyl)piperidin-4-yl]methoxy}acetamido)-3,3-dimethylbutanoyl]-4-hydroxy-N-[(1S)-1-[4-(4-methyl-1,3-thiazol-5-yl)phenyl]ethyl]pyrrolidine-2-carboxamide], for which, in test [1], the Dmax was more than 70% and the DC50 is 100 to 1000 nM. In test [2], the Dmax is more than 70% and the DC50 fell in the range of 100 to 1000 nM.
